Where only a bound is given, the exact number is not on record here.

Experiment [1] concerns the target T1, ADAM-10 (UniProt O14672).
T1 sequence (O14672 1-748): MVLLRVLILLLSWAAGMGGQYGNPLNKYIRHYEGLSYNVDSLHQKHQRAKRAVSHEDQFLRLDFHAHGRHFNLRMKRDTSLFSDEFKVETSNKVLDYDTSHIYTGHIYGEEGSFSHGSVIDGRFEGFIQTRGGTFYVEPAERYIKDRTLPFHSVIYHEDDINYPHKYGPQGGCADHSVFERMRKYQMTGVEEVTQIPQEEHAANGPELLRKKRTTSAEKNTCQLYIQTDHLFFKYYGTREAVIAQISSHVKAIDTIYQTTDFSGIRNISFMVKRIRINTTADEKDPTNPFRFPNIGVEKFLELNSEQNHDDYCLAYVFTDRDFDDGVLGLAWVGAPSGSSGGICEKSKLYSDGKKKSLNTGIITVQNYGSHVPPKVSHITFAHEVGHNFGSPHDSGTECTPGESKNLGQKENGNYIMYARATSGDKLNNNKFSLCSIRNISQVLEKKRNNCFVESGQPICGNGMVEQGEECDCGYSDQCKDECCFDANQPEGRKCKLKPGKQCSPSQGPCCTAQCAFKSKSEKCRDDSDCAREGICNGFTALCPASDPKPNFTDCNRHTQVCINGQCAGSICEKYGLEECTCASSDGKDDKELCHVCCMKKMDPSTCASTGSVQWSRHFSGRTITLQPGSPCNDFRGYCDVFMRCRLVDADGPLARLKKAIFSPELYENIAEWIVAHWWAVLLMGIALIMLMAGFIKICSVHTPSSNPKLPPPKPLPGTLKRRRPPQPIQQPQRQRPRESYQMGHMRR
Kind of experiment: ADAM-10 enzyme assay, cleavage of a fluorogenic 10-residue peptide.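 Note: mouse or human ADAM-10 at 5 nM active enzyme, pH 8.0 HEPES buffer with CaCl2 and NP-40, compounds titrated 100 µM down to 0.5 nM, fluorescence read after 16 h at room temperature.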 Type of experiment: biochemical, mouse or human (mADAM-10 or hADAM-10). The following applies: in vitro.
Procedure: mADAM-10 or hADAM-10 activity was measured as the ability to cleave a 10-residue peptide (DABCYL-Leu-Leu-Ala-Gln-Lys-*-LeuArg-Ser-Ser-Arg-EDANS). […] Enzyme was diluted to a final active concentration of 5 nM in Buffer A (50 mM HEPES 8.0, 100 mM NaCl, 1 mM CaCl2 and 0.01% NP-40). Serial dilutions for compounds were performed ranging from 100 μM to 0.5 nM using a Beckman Biomek 2000 in polypropylene plates (Greiner). […] This reaction was incubated for 16 hr at RT and fluorescence was read using identical conditions.

For experiment [2], the target named is T2, MMP-1 (Fibroblast collagenase) (Homo sapiens, UniProt P03956).
T2 sequence (P03956 100-469): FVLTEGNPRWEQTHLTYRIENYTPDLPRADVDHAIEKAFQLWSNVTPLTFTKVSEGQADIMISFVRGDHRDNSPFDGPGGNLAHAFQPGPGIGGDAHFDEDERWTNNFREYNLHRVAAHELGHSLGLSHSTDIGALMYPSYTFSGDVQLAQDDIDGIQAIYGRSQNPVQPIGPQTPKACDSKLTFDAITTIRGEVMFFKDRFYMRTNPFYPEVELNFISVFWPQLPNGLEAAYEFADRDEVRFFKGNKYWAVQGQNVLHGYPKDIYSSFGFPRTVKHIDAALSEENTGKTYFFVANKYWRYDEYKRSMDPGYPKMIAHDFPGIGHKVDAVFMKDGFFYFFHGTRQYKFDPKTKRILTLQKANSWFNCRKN
Kind of experiment: In vitro metalloprotease inhibition, MMP-1. Type of experiment: biochemical. An excerpt: (§1) Blank cells indicate lack of data only.

Experiment [3] addresses T3, MMP-2 (72 kDa gelatinase, gelatinase A) (Homo sapiens, UniProt P08253).
T3 sequence (P08253 110-660): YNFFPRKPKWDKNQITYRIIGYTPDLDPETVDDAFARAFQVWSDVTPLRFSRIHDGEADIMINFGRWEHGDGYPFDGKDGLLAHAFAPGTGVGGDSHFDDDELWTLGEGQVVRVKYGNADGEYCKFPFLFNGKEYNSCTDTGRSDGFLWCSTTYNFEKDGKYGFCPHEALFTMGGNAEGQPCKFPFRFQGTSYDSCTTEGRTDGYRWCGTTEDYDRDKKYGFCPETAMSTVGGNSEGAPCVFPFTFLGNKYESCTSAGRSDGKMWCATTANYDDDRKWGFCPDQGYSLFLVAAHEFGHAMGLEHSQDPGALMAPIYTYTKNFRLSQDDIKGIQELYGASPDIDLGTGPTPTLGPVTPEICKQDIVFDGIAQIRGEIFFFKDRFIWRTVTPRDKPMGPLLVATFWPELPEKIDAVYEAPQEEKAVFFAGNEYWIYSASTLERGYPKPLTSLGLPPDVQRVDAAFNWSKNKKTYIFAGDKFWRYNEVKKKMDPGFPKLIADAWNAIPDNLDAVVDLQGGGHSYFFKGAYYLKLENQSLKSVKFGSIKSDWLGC
Kind of experiment: In vitro metalloprotease inhibition, MMP-2. Type of experiment: biochemical.

Experiment [4] has as its target MMP-3 (Stromelysin-1) (Homo sapiens, UniProt P08254). Kind of experiment: In vitro metalloprotease inhibition, MMP-3. Type of experiment: biochemical.
Source text: as §1

For experiment [5], the target named is MMP-13 (collagenase-3) (Homo sapiens, UniProt P45452). Kind of experiment: In vitro metalloprotease inhibition, MMP-13. It counts as biochemical.

Chain of MMP-3 (Stromelysin-1) (P08254 100-477, species assumed): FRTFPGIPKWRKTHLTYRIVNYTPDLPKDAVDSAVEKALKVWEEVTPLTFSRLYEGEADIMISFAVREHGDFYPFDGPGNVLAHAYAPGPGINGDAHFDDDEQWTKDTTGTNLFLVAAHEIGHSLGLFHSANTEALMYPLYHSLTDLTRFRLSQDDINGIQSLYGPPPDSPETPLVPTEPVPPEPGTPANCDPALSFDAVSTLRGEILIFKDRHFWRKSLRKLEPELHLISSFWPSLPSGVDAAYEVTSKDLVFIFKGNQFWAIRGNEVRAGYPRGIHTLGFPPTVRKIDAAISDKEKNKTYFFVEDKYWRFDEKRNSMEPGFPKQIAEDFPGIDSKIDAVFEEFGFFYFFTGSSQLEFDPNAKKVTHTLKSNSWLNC

In general, IC50 refers to the midpoint of a concentration-inhibition curve. In the case of `COCCOC(=O)N1CCN(S(=O)(=O)c2ccc(Oc3ccc(F)cc3)cc2)[C@@H](C(=O)NO)C1` [Entry 1], the concentration for half-maximal inhibition (IC50) in experiment [1], in experiment [2], in experiment [3], in experiment [4] and in experiment [5] was less than 50 nM throughout.
As to `O=C(NO)[C@H]1CN(C(=O)N2CCOCC2)CCN1S(=O)(=O)c1ccc(Oc2ccc(F)cc2)cc1` [Entry 2], the half-inhibitory concentration (IC50) in experiment [1], in experiment [2], in experiment [3], in experiment [4] and in experiment [5] was less than 50 nM each time.
Turning to `COCCOC(=O)N1CCN(S(=O)(=O)c2ccc(Oc3ccc(F)cc3)c(F)c2)[C@@H](C(=O)NO)C1` [Entry 3], the IC50 in experiment [1] is less than 50 nM; in experiment [2], 50 to 1000 nM; in experiment [3], less than 50 nM; in experiment [4], 1000 to 20000 nM; in experiment [5], less than 50 nM.
On to `COCCOC(=O)N1CCN(S(=O)(=O)c2ccc(Oc3ccc(Cl)cc3)c(F)c2)[C@@H](C(=O)NO)C1` [Entry 4], for which the concentration for half-maximal inhibition (IC50) in experiment [1] is less than 50 nM; in experiment [2], 50 to 1000 nM; in experiment [3], less than 50 nM; in experiment [4] it was less than 50 nM; in experiment [5], less than 50 nM.
In the case of `COCCOC(=O)N1CCN(S(=O)(=O)c2ccc(Oc3ccc(C#N)cc3)c(F)c2)[C@@H](C(=O)NO)C1` [Entry 5], the IC50 is less than 50 nM in experiment [1]; 50 to 1000 nM in experiment [2]; less than 50 nM in experiment [3]; 50 to 1000 nM in experiment [4]; less than 50 nM in experiment [5].
As to `O=C(NO)[C@H]1CN(C(=O)N2CCOCC2)CCN1S(=O)(=O)c1ccc(Oc2ccc(Cl)cc2)c(F)c1` [Entry 6], the 50% inhibitory concentration (IC50) in experiment [1] was less than 50 nM; in experiment [2] it was 50 to 1000 nM; in experiment [3] it was less than 50 nM; in experiment [4] it was less than 50 nM; in experiment [5], less than 50 nM.
In the case of `N#Cc1ccc(Oc2ccc(S(=O)(=O)N3CCN(C(=O)N4CCOCC4)C[C@@H]3C(=O)NO)cc2F)cc1` [Entry 7], the concentration for half-maximal inhibition (IC50) in experiment [1] is less than 50 nM; in experiment [2] it was 50 to 1000 nM; in experiment [3], less than 50 nM; in experiment [4], less than 50 nM; in experiment [5], less than 50 nM.
As to `O=C(NO)[C@H]1CN(C(=O)N2CCOCC2)CCN1S(=O)(=O)c1ccc(Oc2ccc(F)cc2)c(F)c1` [Entry 8], the IC50 in experiment [1] is less than 50 nM; in experiment [2] it was 50 to 1000 nM; in experiment [3], less than 50 nM; in experiment [4], less than 50 nM; in experiment [5] it was less than 50 nM.
Take `CC(C)(C)OC(=O)N1CCN(S(=O)(=O)c2cc(F)c(Oc3ccc(F)cc3)c(F)c2)[C@@H](C(=O)NO)C1` [Entry 9]: the IC50 is less than 50 nM in experiment [1]; 1000 to 20000 nM in experiment [2]; less than 50 nM in experiment [3]; 1000 to 20000 nM in experiment [4]; 1000 to 20000 nM in experiment [5].
`COCCOC(=O)N1CCN(S(=O)(=O)c2cc(F)c(Oc3ccc(F)cc3)c(F)c2)[C@@H](C(=O)NO)C1` [Entry 10]: the IC50 in experiment [1] is less than 50 nM; in experiment [2] it was 1000 to 20000 nM; in experiment [3], less than 50 nM; in experiment [4], 1000 to 20000 nM; in experiment [5], less than 50 nM.
Regarding `O=C(NO)[C@H]1CNCCN1S(=O)(=O)c1cc(F)c(Oc2ccc(F)cc2)c(F)c1` [Entry 11], the half-maximal inhibitory concentration (IC50) is 50 to 1000 nM in experiment [1]; more than 20000 nM in experiment [2]; 50 to 1000 nM in experiment [3]; 1000 to 20000 nM in experiment [4]; more than 20000 nM in experiment [5].
For the molecule `O=C(NO)[C@H]1CN(C(=O)N2CCOCC2)CCN1S(=O)(=O)c1cc(F)c(Oc2ccc(F)cc2)c(F)c1` [Entry 12], the IC50 is less than 50 nM in experiment [1]; 1000 to 20000 nM in experiment [2]; less than 50 nM in experiment [3]; 50 to 1000 nM in experiment [4]; less than 50 nM in experiment [5].
For `CCOC(=O)N1CCN(S(=O)(=O)c2cc(F)c(Oc3ccc(F)cc3)c(F)c2)[C@@H](C(=O)NO)C1` [Entry 13], the IC50 was less than 50 nM in experiment [1]; 1000 to 20000 nM in experiment [2]; less than 50 nM in experiment [3]; 50 to 1000 nM in experiment [4]; less than 50 nM in experiment [5].
On to `CN1CCN(S(=O)(=O)c2cc(F)c(Oc3ccc(F)cc3)c(F)c2)[C@@H](C(=O)NO)C1` [Entry 14], for which the half-maximal inhibitory concentration (IC50) in experiment [1] is 50 to 1000 nM; in experiment [2], more than 20000 nM; in experiment [3] it was less than 50 nM; in experiment [4], more than 20000 nM; in experiment [5] it was less than 50 nM.
For `CN1CCN(C(=O)N2CCN(S(=O)(=O)c3cc(F)c(Oc4ccc(Cl)cc4)c(F)c3)[C@@H](C(=O)NO)C2)CC1` [Entry 16], the IC50 in experiment [1] is less than 50 nM; in experiment [2], more than 20000 nM; in experiment [3], less than 50 nM; in experiment [4], 1000 to 20000 nM; in experiment [5] it was less than 50 nM.
As for `O=C(NO)[C@H]1CN(C(=O)NCCN2CCCC2)CCN1S(=O)(=O)c1cc(F)c(Oc2ccc(Cl)cc2)c(F)c1` [Entry 17], the half-maximal inhibitory concentration (IC50) was less than 50 nM in experiment [1]; 1000 to 20000 nM in experiment [2]; less than 50 nM in experiment [3]; 50 to 1000 nM in experiment [4]; less than 50 nM in experiment [5].
Turning to `O=C(NO)[C@H]1CN(C(=O)OCCN2CCCC2)CCN1S(=O)(=O)c1cc(F)c(Oc2ccc(Cl)cc2)c(F)c1` [Entry 18], the half-inhibitory concentration (IC50) was less than 50 nM in experiment [1]; more than 20000 nM in experiment [2]; less than 50 nM in experiment [3]; 50 to 1000 nM in experiment [4]; less than 50 nM in experiment [5].
For the molecule `CNC(=O)CN1CCN(S(=O)(=O)c2cc(F)c(Oc3ccc(Cl)cc3)c(F)c2)[C@@H](C(=O)NO)C1` [Entry 19], the half-inhibitory concentration (IC50) is less than 50 nM in experiment [1]; more than 20000 nM in experiment [2]; less than 50 nM in experiment [3]; 50 to 1000 nM in experiment [4]; less than 50 nM in experiment [5].
Take `CN(C)C(=O)CN1CCN(S(=O)(=O)c2cc(F)c(Oc3ccc(Cl)cc3)c(F)c2)[C@@H](C(=O)NO)C1` [Entry 20]: the IC50 in experiment [1] is less than 50 nM; in experiment [2], more than 20000 nM; in experiment [3] it was less than 50 nM; in experiment [4], 1000 to 20000 nM; in experiment [5], less than 50 nM.
`O=C(NO)[C@H]1CN(CC(=O)N2CCCC2)CCN1S(=O)(=O)c1cc(F)c(Oc2ccc(Cl)cc2)c(F)c1` [Entry 21]: the IC50 in experiment [1] is less than 50 nM; in experiment [2], more than 20000 nM; in experiment [3] it was less than 50 nM; in experiment [4] it was 1000 to 20000 nM; in experiment [5], 50 to 1000 nM.
`CN1CCC(OC(=O)N2CCN(S(=O)(=O)c3cc(F)c(Oc4ccc(Cl)cc4)c(F)c3)[C@@H](C(=O)NO)C2)CC1` [Entry 22]: the concentration for half-maximal inhibition (IC50) is less than 50 nM in experiment [1]; 1000 to 20000 nM in experiment [2]; less than 50 nM in experiment [3]; 50 to 1000 nM in experiment [4]; less than 50 nM in experiment [5].
Regarding `CCOC(=O)N1CCN(CC(=O)N2CCN(S(=O)(=O)c3cc(F)c(Oc4ccc(Cl)cc4)c(F)c3)[C@@H](C(=O)NO)C2)CC1` [Entry 23], the half-maximal inhibitory concentration (IC50) is less than 50 nM in experiment [1]; more than 20000 nM in experiment [2]; less than 50 nM in experiment [3]; 1000 to 20000 nM in experiment [4]; less than 50 nM in experiment [5].
For `CN1CCN(CC(=O)N2CCN(S(=O)(=O)c3cc(F)c(Oc4ccc(Cl)cc4)c(F)c3)[C@@H](C(=O)NO)C2)CC1` [Entry 24], the IC50 is less than 50 nM in experiment [1]; more than 20000 nM in experiment [2]; less than 50 nM in experiment [3]; 1000 to 20000 nM in experiment [4]; less than 50 nM in experiment [5].

For the origin of these results see US7629341B2, “Human ADAM-10 inhibitors” (Symphony Evolution, Inc., priority 2003, dated 2009).
